# Reference: ChEMBL document CHEMBL1133950, “Synthesis and biological evaluation of clitocine analogues as adenosine kinase inhibitors” (Bioorg Med Chem Lett, 2001)
# Biological target: Adenosine kinase (Rattus norvegicus, UniProt Q64640)
# Assay: In vitro inhibition of Adenosine kinase of rat brain cytosol.
# Chain of Adenosine kinase (Q64640 whole entry): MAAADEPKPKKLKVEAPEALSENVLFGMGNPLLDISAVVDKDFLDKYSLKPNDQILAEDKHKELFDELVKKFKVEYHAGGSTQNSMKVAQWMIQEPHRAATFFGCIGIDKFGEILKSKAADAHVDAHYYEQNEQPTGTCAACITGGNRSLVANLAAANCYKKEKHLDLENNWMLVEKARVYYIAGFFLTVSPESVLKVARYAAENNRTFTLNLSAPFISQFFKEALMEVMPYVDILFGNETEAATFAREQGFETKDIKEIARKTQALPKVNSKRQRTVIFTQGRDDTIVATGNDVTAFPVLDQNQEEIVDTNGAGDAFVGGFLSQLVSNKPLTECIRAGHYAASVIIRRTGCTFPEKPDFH
row,IC50,SMILES
1,> 10 µM,Nc1ncnc(N[C@@H]2O[C@H](CO)[C@@H](O)[C@H]2O)c1[S+]([O-])c1ccccc1 (some centres undefined)
2,> 10 µM,Nc1ncnc(N[C@@H]2O[C@H](CO)[C@@H](O)[C@H]2O)c1S(=O)(=O)c1ccccc1
3,6.1 µM,COC(=O)c1c(N)ncnc1N[C@@H]1O[C@H](C)[C@@H](O)[C@H]1O
4,> 10 µM,Nc1ncnc(N[C@@H]2O[C@H](CO)[C@@H](O)[C@H]2O)c1C(=O)NCCO
5,0.035 µM,NC[C@H]1O[C@@H](Nc2ncnc(N)c2[N+](=O)[O-])[C@H](O)[C@@H]1O
6,> 10 µM,O=[N+]([O-])c1c(Nc2ccccc2)ncnc1N[C@@H]1O[C@H](CO)[C@@H](O)[C@H]1O
7,0.004 µM,COC(=O)c1cncnc1N[C@@H]1O[C@H](CN)[C@@H](O)[C@H]1O
8,10 µM,COC(=O)c1c(N)ncnc1N[C@@H]1O[C@H](CO)[C@@H](O)[C@H]1O
9,> 10 µM,Nc1ncnc(N[C@@H]2O[C@H](CBr)[C@@H](O)[C@H]2O)c1[N+](=O)[O-]
10,0.6 µM,COC(=O)c1cncnc1N[C@@H]1O[C@H](CO)[C@@H](O)[C@H]1O
11,> 10 µM,COC(=O)c1c(Cl)ncnc1N[C@@H]1O[C@H](CO)[C@@H](O)[C@H]1O
12,4 µM,Nc1ncnc(N[C@@H]2O[C@H](CO)[C@@H](O)[C@H]2O)c1C1=NCCO1
13,0.002 µM,COC(=O)c1c(N)ncnc1N[C@@H]1O[C@H](CN)[C@@H](O)[C@H]1O
14,4 µM,C[C@H]1O[C@@H](Nc2ncnc(N)c2[N+](=O)[O-])[C@H](O)[C@@H]1O
